The METLIN SMRT retention time set (Domingo-Almenara et al. 2019)

Assay: gradient 5% acetonitrile 3 min, to 50% in 2 min, to 85% in 15 min, held 3 min, 100 µL/min
Conditions: column: Zorbax Extend-C18 2.1 x 50 mm; eluents: water / acetonitrile, 0.1% formic acid
In short: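 Standards, all pure, were combined into mixtures of ~100 molecules and run at 100 μL/min on a Zorbax Extend-C18 column (2.1 × 50 mm, 1.8 μm) with water and acetonitrile, each containing 0.1% formic acid. A coupled quadrupole time-of-flight mass spectrometer operated in positive and negative ionization mode. Retention time values come from computationally picked adduct peaks, each inspected manually.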

Structure (SMILES)	RP-LC retention time [s]
O=C(c1cc(C2CC2)[nH]n1)N1CCN(c2ccc(N3CCOCC3)nn2)CC1	577
CN(C)CCNC(=O)C1CCN(c2ccc(-c3cccs3)nn2)CC1	571
CCn1c(C)c(C(=O)C(C)N(CCC(C)C)C(=O)c2ccccc2Cl)c(C)c1C(=O)OC (configuration not stated)	1210
CCn1ccc2cc(S(=O)(=O)N3CCC(C(=O)N4CCN(c5ccccc5)CC4)CC3)ccc21	671
COc1ccc(-c2cn3ccn(-c4ccc(F)cc4)c(=O)c3n2)cc1OC	738
COc1ccc(CN2CC3(CCN(S(=O)(=O)c4ccc(F)cc4)CC3)C2=O)cc1	904
Cc1noc(-c2ccc(OC3CN(C(=O)CC4CCCC4)C3)cc2)n1	906
CCOC(=O)c1ccc(NC2=NS(=O)(=O)C(c3ccc(OC)cc3)=C2C)cc1	928
Cc1ccc(C)c(C(=O)N2C[C@@H](F)C[C@H]2C(=O)N2CCCCC2)c1	710
Cc1ccc(C)c(NC(=O)N2CCCC(Cn3c(C4CC4)nc4cccnc43)C2)c1 (configuration not stated)	680
COc1ccc(N2CCN(c3cc(SCC(=O)Nc4cc(Cl)ccc4OC)ncn3)CC2)cc1	1200
CC1CCN(Cc2nnc(-c3ccccc3)o2)CC1	601
CCC(=O)NCc1csc(C2CCN(C(=O)C3CCC3)CC2)n1	614
Cc1ccc(-c2cc3n(n2)CCCN(C(=O)CCC(=O)c2ccc(F)cc2)C3)cc1	943
CCc1noc(-c2cc(=O)n(CC(=O)NCc3ccccc3F)c3ccccc23)n1	890
Cc1cc(C)c(C)c(S(=O)(=O)NCC(=O)NCc2ccco2)c1C	573
COc1ccc(-c2noc(CSc3nc4cc5c(cc4c(=O)n3CC3CCCO3)OCO5)n2)cc1 (configuration not stated)	1090
Cc1ccc2c(Nc3ccc(Cl)cc3)c(-c3nc(C)no3)cnc2n1	785
CC(C)CN(CC1CN(C(=O)COc2ccccc2)CCO1)C(=O)c1ccccc1 (configuration not stated)	851
CSc1nc(NCCN(C)C)c(C#N)c(-c2ccccc2)n1	642
O=C(NCc1ccc(Br)cc1)C1CCN(C(=O)c2cc(-c3ccncc3)n[nH]2)CC1	618
Cc1nc(C2CCOCC2)n(C2CCN(S(=O)(=O)c3cccc(Cl)c3)C2)n1 (configuration not stated)	738

Structure (SMILES)	RP-LC retention time [s]
Cc1ncc(C(=O)NC2CC2)c(=O)n1CC(=O)Nc1cc(F)ccc1F	705
CN(C)c1nc2cc(C(=O)NCC3CC3)sc2n1-c1ccccc1	702
Cn1nccc1-c1cccc(-c2noc(-c3cc(F)ccc3F)n2)c1	1100
COc1ccc(CN(Cc2ccccc2)Cc2cc(=O)n3cc(Cl)ccc3n2)cc1OC	687
Cc1ccccc1C(=O)N1CCC2(C1)C(=O)N(C)c1ccccc12 (configuration not stated)	767
Clc1ccc2nc(-c3ccc(N4CCOCC4)cc3)c(Nc3ccc4c(c3)OCO4)n2c1	715
Cc1cccc(Sc2nccnc2N2CCCC(C(=O)NCc3ccc(C)c(C)c3)C2)c1 (configuration not stated)	1210
CC#CCOC(=O)c1c(C)nc2sc3c(c2c1N)CCC(O)C3 (configuration not stated)	662
COc1ccc(N2CCN(S(=O)(=O)c3cc(-c4nc(C(C)C)cs4)sc3C)CC2)cc1	1340
CCCCN(C)Cc1nnn(-c2ccc(F)cc2)c1C	617
COc1ccccc1NC(=O)N1CCCC1c1cc(C)on1 (configuration not stated)	800
COc1cc(NC(=O)N2CCC(N3CCN(Cc4ccc(C)cc4)C(=O)C3=O)CC2)cc(OC)c1	758
Cc1cc(C)cc(NC(=O)N2CCC(N3CCN(Cc4ccc(F)cc4)C(=O)C3=O)CC2)c1	788
CCCCN(C)C(=O)CN1C(=O)CCCc2cc(S(=O)(=O)N3CCC(C)CC3)ccc21	971
O=C(C1CCN(c2nc3ccc(-c4cccc(F)c4)nc3s2)CC1)N1CCOCC1	892
COc1ccc(-c2nc3cnccn3c2Nc2ccc(Br)cc2)cc1OC	884
O=C(CSc1nnc(NC(=O)COc2ccc(Cl)cc2)s1)NCc1ccco1	768
CCOc1ccc(CC(=O)N2CCN(Cc3nc(C)cs3)CC2)cc1	586
CC(C)N1C(=O)c2cccnc2Sc2cc(NC(=O)c3cccs3)ccc21	837
Cc1cccc(N2CCN(c3ccc4cc(S(=O)(=O)N5CCC(C)CC5)ccc4n3)CC2)c1C	1460
COc1ccccc1-n1c(SCC(=O)Nc2cc(C)on2)nc2c(c1=O)SCC2	728
COCCCNC(=O)[C@@H]1[C@H](c2cc(OC)c(OC)c(OC)c2)c2cc3c(cc2[C@H](O)[C@H]1CO)OCO3	630

Structure (SMILES)	RP-LC retention time [s]
COCc1cc2nn(CC(=O)Nc3c(C)cccc3C)c(=O)n2c(-c2ccccc2)n1	930
O=C(Cc1csc(-c2ccccc2F)n1)NCCc1c[nH]c2ccccc12	904
Cc1ccc(C)c(NC(=O)CSc2nnc3c4cc(-c5ccc(C)c(C)c5)nn4ccn23)c1	778
COc1ccc(S(=O)(=O)NCc2ccc3c(c2)CCN3C(C)=O)cc1Cl	779
Cc1nc(-c2cc(S(=O)(=O)NCC(=O)N3CCN(c4ccccc4)CC3)c(C)s2)no1	896
Cc1cc(C)cc(Oc2nccn3c(=O)n(CC(=O)Nc4ccc(F)cc4)nc23)c1	905
CC(C)NC(=O)Cn1cnc2nc(N3CCCC(C(=O)NC4CC4)C3)sc2c1=O (configuration not stated)	608
Cc1ccc(-n2ccc(=O)c(-c3nc(-c4cccc(F)c4)no3)n2)cc1	928
Cc1c(CN2CCC(N(C(=O)NCCc3ccccc3)C3CCOCC3)CC2)cnn1C	627
CCOC(=O)CNC(=O)Nc1ccc(CCc2nc3ccccc3[nH]2)cc1	606
CS(=O)(=O)Oc1ccc(Br)c2cccnc12	889
O=C(Cn1nc2c(cc1=O)CCCC2)Nc1nc(-c2ccc3c(c2)OCCCO3)cs1	862
CC(C)(C)c1ccc(C(=O)NC2CCN(c3cc(-c4ccccc4)[nH]n3)C2)cc1 (configuration not stated)	872
COCCCNC(=O)NC(C(=O)N1CCc2ccccc21)c1ccccc1 (configuration not stated)	798
Cc1ccc(Sc2nccnc2N2CCCC(C(=O)Nc3ccc(C)cc3C)C2)cc1 (configuration not stated)	1150
Cc1ccc(Nc2c(-c3ccc(C(=O)O)cc3)nc3cnccn23)cc1Cl	790
COCCNC(=O)CSc1nc(-c2ccccc2)[nH]c1-c1ccccc1	641
COc1nn(C)cc1C(=O)Nc1nc(-c2nc3ccccc3s2)cs1	837
COc1ccccc1OCCC1CCN(C(=O)CCS(=O)(=O)c2ccc3c(c2)CCN3C(C)=O)C1 (configuration not stated)	788
COc1cccc(CN2CCCn3nc(-c4cccc(OC)c4)cc3C2)c1	561
O=C(NCc1cc(F)cc(F)c1)C1CCN(c2nnc(-c3ccccc3)o2)CC1	844
O=C(Nc1ccc(Cl)cc1F)C1CCCN(C(=O)c2cc(-c3ccccn3)n[nH]2)C1 (configuration not stated)	740

Structure (SMILES)	RP-LC retention time [s]
COc1ccc(OCc2nnc3sc(-c4ccccn4)nn23)cc1	823
Cc1cc(C)c2c(N3CCCC3)nc(C(=O)Nc3ccc4c(c3)OCCO4)nc2n1	583
O=C(CCn1c(N2CCCC2)nc2ccsc2c1=O)N1CCN(c2ccccc2F)CC1	849
O=C(COc1ccc(F)cc1)Nc1cnc(N2CCCCC2)nc1	931
CC(C)CC(=O)Nc1ccc(OCc2cc(C(=O)NC(C)C)no2)cc1	816
Cc1nc(-c2ccncc2)nc2c1CCC(=O)N2CCN1CCCC1	533
CC(=O)NCc1csc(C2CCN(C(=O)COc3ccc(F)cc3)CC2)n1	662
CCOc1ccccc1NC(=O)C1CCc2nc(N3CCCCC3)ncc2C1 (configuration not stated)	903
COc1ccc(NC(=O)C2CCCN(c3nnc4ccccn34)C2)cc1 (configuration not stated)	637
COc1ccc(NC(=O)Cn2nc3cc(-c4ccc(OC)cc4)nc(C)n3c2=O)cc1	872
O=S(=O)(c1cc(-c2nnc(C3CCCC3)o2)co1)N1CCCCC1	1000
O=C(Cc1cccc(Cl)c1)N1CCc2cc(-c3ccno3)ccc21	1020
Cc1oc(-c2ccc(C(=O)NCCN(C)C)cc2)nc1CSc1ccccc1	696
CC(Oc1ccccc1Cl)C(=O)Nc1ccnn1Cc1cccs1 (configuration not stated)	913
O=C1OCC2=C1C(c1ccccc1)NC(=O)N2CC(=O)N1CCCCC1 (configuration not stated)	672
CCOc1ccccc1NC(=O)N1CCc2nc(-c3ccc(Cl)cc3)ncc2C1	1170
O=C(Cc1cccc2ccccc12)Nc1cc(-c2ccccn2)no1	878
CC1(C)C(=O)N2c3ccccc3C3(CC(N4C(=O)c5ccccc5C4=O)C(=O)O3)C2N1C(=O)OCc1ccccc1 (configuration not stated)	1170
CCC1CCCCN1CCCNC(=O)Cn1ccc2cc(S(=O)(=O)N3CCCCCC3)ccc21 (configuration not stated)	704
CCS(=O)(=O)c1nc2ccc(NS(=O)(=O)c3c(C)n[nH]c3C)cc2s1	693
CCOC(=O)c1c(C)oc2nc(C)nc(N3CCN(c4ccc(OC)cc4)CC3)c12	979
